The subject of this data set is human cardiomyocytes.

One compound from patent publication US9913901B2, “Combination therapy for treating HER2-positive cancers” (Merrimack Pharmaceuticals, Inc., priority 2012, dated 2018) can be followed below.

`COc1cccc2c1C(=O)c1c(O)c3c(c(O)c1C2=O)C[C@@](O)(C(=O)CO)C[C@@H]3O[C@H]1C[C@H](N)[C@H](O)[C@H](C)O1` [free doxorubicin, (8S,10S)-10-(4-amino-5 hydroxy-6-methyl-tetrahydro-2H-pyran-2-yloxy)-6,8,11-trihydroxy-8-(2-hydroxyacetyl)-1-methoxy-7,8,9,10-tetrahydrotetracene-5,12-dione]: the “level of uptake into human cardiomyocytes” value is “relatively much higher compared to both MM-302 and untargeted pegylated liposomal doxorubicin”.
